# Legend:
# [1] = system: DJ-1 RNAi depleted HeLa cells; conditions: cited from earlier work
# HeLa cells = test: Intracellular calcium, Fluo4-AM loaded HeLa cells, fluorescent plate reader; type: cell-based; conditions: FIG. 12
# Description: HeLa cells were loaded with Fluo4-AM and fluorescence was monitored with the help of a fluorescent plate reader. Values are normalized to the initial fluorescent value.
# dopaminergic neurons [2] = conditions: cited from earlier work
# [3] = system: djr1.1/djr1.2 and glod-4 KO C. elegans; test: Embryonic lethality in C. elegans (percentage of hatched eggs); type: in vivo; conditions: worms fed with substance, FIG. 18
# Experimental: All C. elegans strains were maintained on NGM agar plates seeded with Escherichia coli NA22 at 15° C.
# [4] = system: HeLa cells treated with siRNA against PARK-7/DJ-1; test: Calcium imaging on HeLa cells during mitosis after PARK-7/DJ-1 down-regulation; type: cell-based; conditions: PARK-7/DJ-1 down-regulated HeLa cells, 5 mM, FIG. 17
# Experimental: HeLa cells were loaded with Fluo-4 AM, a dye used to measure calcium concentration in living cells, as described by the manufacturer and recorded for 4 hours. Graphics show the variations in intracellular calcium concentration during mitosis in WT and cells treated with siRNA against PARK-7/DJ-1 to down-regulate this gene.
# HeLa-Kyoto cells stably expressing histone H2B-mCherry and mouse DJ-1 were used. Cells were maintained in DMEM supplemented with 10% fetal bovine serum (FBS), 2 mM GlutaMAX, 100 unit/ml penicillin, 100 μg/ml streptomycin. For esiRNA treatment, cells were plated at a density of 15.000 cells/well in an ibidi 8 well chamber (Cat. no 80826, ibidi, Germany, EU), transfected with different esiRNAs (RLUC as empty vector, hPARK-7 and hKIF11 as positive control) (all esiRNAs were obtained from Eupheria, Germany, EU), and left for 72 hours before performing calcium imaging. esiRNA transfection was performed as follows. esiRNA was diluted in distilled water to a concentration of 20 ng/μl. For each well, two solutions were made: 1. […]
# We observed that the Fluo-4 AM dye started to leak out of the cells into the medium after 1.5 hours of imaging. […] Images were analyzed using FIJI Image Analysis Freeware (https://fiji.sc). MFI of the Fluo-4 AM signal within the cell was determined using manually selected ROIs covering the whole cell area for each time-point. […]
# dopaminergic neurons [5] = test: Survival of dopaminergic neurons with paraquat 12.5 μM challenge (Example 5, FIGS. 19, 20); type: cell-based, mouse
# Experimental: (§1) Dopaminergic neurons were isolated and plated at a concentration of 1.000.000 cells/ml (100 μl/well) in a 96 well plate and cultured in medium with one or more of the various factors indicated, as described in the examples below. The survival of dopaminergic neurons in the presence and absence of various agents of the invention, either with or without paraquat challenge, is shown by the number of TH positive neurons normalized to the control treatment.
# Dopaminergic neurons were isolated and plated at a concentration of 1.000.000 cells/ml (100 μl/well) in a 96 well plate. After 3-4 hours incubation at 37° C., 20 μl of medium was removed from each well. (VF=80 μl). Changes in medium and start point of the treatment were on the following day in vitro (DIV). The following protocol was employed to assess the survival of dopaminergic neurons in the presence and absence of various agents of the inventive combination, either with or without paraquat challenge. • DIV.1: Change half of medium N2 (40 μl) with fresh medium N2. • DIV.3: Change half of the medium and start with medium (control) or with medium A containing PB (0.15 mM) and TUDCA (0.5 mM), or with Medium A containing GA (normally 1 mM, 3 mM, or 10 mM) or with Medium A containing GA (1 mM or 3 mM) and PB (0.15 mM) or with Medium A containing GA (5 mM) and TUDCA (0.5 mM) or with Medium A containing PB (0.15 mM). Medium A is N2 medium but without FBS and N2-Supplement. • DIV.5: Second round of control or treatment with different treatments. Half of the medium (40 μl) was replaced by fresh medium A with the different agents. • DIV.7: Paraquat 12.5 μM treatment starts alone or in combination with the treatments explained above. Half of the medium (40 μl) was replaced by fresh medium A with the different treatment combinations or without (control). • DIV.9: Second day of treatment with Paraquat (PQ) 12.5 μM in addition to the other treatments as explained above. • DIV.11: Fixation 2% of PFA during 20 min at 37° C. or overnight at 4° C.
# The effect of the different treatments on dopaminergic neurons survival upon exposure to paraquat was assessed through of TH+ neurons after treatment. Briefly, neurons were fixed using 2% paraformaldehyde for immunocytochemical analysis after treatment. Dopaminergic TH^+ neurons per well were identified and counted using an inverted fluorescence microscope (Olympus) under a 20× objective.
# dopaminergic neurons [6] = test: Survival of dopaminergic neurons with paraquat 25 μM challenge (Example 1, FIG. 1); type: cell-based, mouse
# Experimental: as §1
# Dopaminergic neurons were isolated and plated at a concentration of 1.000.000 cells/ml (100 μl/well) in a 96 well plate. After 3-4 hours incubation at 37° C., 20 μl of medium was removed from each well. (VF=80 μl). Changes in medium and start point of the treatment were done in the following day in vitro (DIV). The following protocol was employed in order to assess the survival of dopaminergic neurons in the presence and absence of various agents of the invention combination, either with or without paraquat challenge. • DIV.1: Change half of medium N2 (40 μl) with fresh medium N2. • DIV.3: Change half of the medium and start with medium (control) or with medium A containing LA (different concentrations) and/or GA (normally 5 mM or 10 mM). Medium A is N2 medium but without FBS and N2-Supplement. • DIV.5: Second round of control or treatment with LA and/or GA. Half of the medium (40 μl) was replaced by fresh medium A with the different agents. • DIV.7: Paraquat 25 μM treatment starts with or without GA and L-alanine. Half of the medium (40 μl) was replaced by fresh medium A with the different treatment combinations or without (control). • DIV.9: Second day of treatment with Paraquat (PQ) 25 μM in addition to the other substances (LA and GA). • DIV.10: Fixation 2% of PFA during 20 min at 37° C. or overnight at 4° C.
# Primary mesencephalic neuronal cell cultures were prepared as previously described. Briefly, E14.5 embryos were obtained from C57JBL6 pregnant mice after cervical dislocation. Brain mesencephali were dissected under the microscope and digested with Trypsin-EDTA 0.12% (Life Technologies, USA) for 7 min. The trypsin reaction was then stopped by adding basic medium (BM), containing Neurobasal A medium (Gibco, USA), 1 mg/mL Pen/Strep, 10% FCS, and […] L-Glutamine, and cells were mechanically dissociated using a fire-polished Pasteur pipette. Medium was fully replaced after 5 min, centrifugation at 1200 rpm, aspiring the supernatant and adding 8 mL of fresh BM to the pellet. Concentration of cells in the medium was estimated using a Neubauer chamber and a 100 μL of medium containing 10^6 cells/mL plated per well in a 96-well plate (Greiner Sensoplate, Germany, EU). Then a 20 μL of medium was removed from the well and 24 h later, ⅓ of the media was replaced with fresh BM. […]
# [7] = 5 g tablet or powder by mouth; cited from earlier work
# [8] = estimated; cited from earlier work
# [9] = human, in vivo
# Description: Potential side effects were closely monitored.
compound,measurement,setting,value
"C[C@@H](O)C(=O)O [DL, D-(−)-lactic acid]",mitochondrial potential,[1],maintain or rescue mitochondrial potential
same,intracellular calcium (Fluo4-AM fluorescence normalized to initial value),HeLa cells,reduce intracellular calcium
same,survival of dopaminergic neurons,dopaminergic neurons [2],rescued the survival of dopaminergic neurons
same,embryonic lethality (percentage of hatched eggs),[3],rescue of embryonic lethality
same,calcium influx during mitosis,[4],able to rescue this phenotype
"C[n+]1ccc(-c2cc[n+](C)cc2)cc1 [PQ, Paraquat, reference compound]",number of TH positive neurons normalized to the control treatment,"dopaminergic neurons [5]; PQ 12.5 μM alone, FIG. 19",0.58
same,number of TH positive neurons normalized to the control treatment,"dopaminergic neurons [5]; PQ 12.5 μM alone, FIG. 20",0.44
same,survival of dopaminergic neurons (number of TH positive neurons normalized to the control treatment),dopaminergic neurons [6]; PQ 25 μM alone,severe reduction in neuron survival
sodium phenylbutyrate,time to metabolism into phenylacetate,[7],within half an hour
same,time to peak concentration in the bloodstream,[7],within an hour
same,time until detected in the blood,[7],≤ 15 min
OCCOCCO [diethylene glycol],minimum toxic dose,[8],0.14 mg glycolic acid per kg of body weight
"O=C(O)CCCc1ccccc1 [PB, 4-Phenylbutyric acid, reference compound]",number of TH positive neurons normalized to the control treatment,"dopaminergic neurons [5]; PQ 12.5 μM + 0.15 mM PB, FIG. 19",0.72
"C[C@H](N)C(=O)O [LA, L-Alanine]","prevention of kidney damage or stones, renal or liver disfunction",[9],sufficient to prevent any kidney damage or stones
same,side effects / function of the kidney or liver,[9],avoid any unwanted side effects or reductions in function of the kidney or liver
same,survival of dopaminergic neurons (rescue),dopaminergic neurons [6]; 0.01 mM LA alone with PQ 25 μM,no rescue

# Source: patent US20230277491A1, “PHARMACEUTICAL COMBINATION COMPRISING GLYCOLIC ACID AND L-ALANINE” (priority 2020, published 2023)
